According to patent publication US20030207872A1, “OMEGA-CARBOXYARYL SUBSTITUTED DIPHENYL UREAS AS RAF KINASE INHIBITORS” (BAYER CORPORATION, priority 2002, published 2003):

For COC(=O)c1ccc(Oc2ccc(NC(=O)Nc3ccc(Cl)c(C(F)(F)F)c3)cc2)cn1 [Entry 55, N-(4-chloro-3-(trifluoromethyl)phenyl)-N′-(4-(2-(methoxycarbonyl)-5-pyridyloxy)phenyl) urea], the melting point was 228 to 230 °C.
